Experimental data from patent US20030157162A1, “Liposome-encapsulated opioid analgesics” (priority 2002, published 2003).
Structures can show the parent of a compound that is named as a salt.

How the values were obtained:
[1] = In vivo pharmacokinetics in dogs (ELISA, NONMEM model, trapezoidal AUC); parameters: species or system dog
Description: Twenty-five adult beagles (n=14; 12 female, 2 male) and hounds (n=11; 9 female, 2 male) that were 1 to 5 years old (median age 1.5 years) and weighed between 6.9 kg and 35.7 kg (median weight=9.46 kg) were used. Normal health status and organ function were confirmed by physical exam and a complete blood count and serum chemistry profile prior to inclusion in the study. None of the animals received any medications in the 2 weeks prior to study. Animals were housed individually (hounds) or in groups of 2 to 4 (beagles), and were fed a commercial diet and water ad libitum throughout the study.
(§1) Two doses of liposome-encapsulated oxymorphone and two equipotent doses of standard pharmaceutical oxymorphone were investigated. One dose of the liposomal vehicle was also investigated to confirm the absence of pharmacodynamic properties of the vehicle. Each dog received only 1 treatment and was then removed from further study. Treatment groups were as follows: Group 1 (n=6) liposome-encapsulated oxymorphone (1.0 mg/kg); Group 2 (n=5) liposome-encapsulated oxymorphone (0.5 mg/kg); Group 3 (n=6) standard pharmaceutical oxymorphone (NUMORPHAN®, Endo Pharmaceuticals Inc., Chadds Ford, Pa.) (0.1 mg/kg); Group 4 (n=6) standard pharmaceutical oxymorphone (0.05 mg/kg); Group 5 (n=2) liposomal vehicle (0.7 ml). Liposome-encapsulated oxymorphone or vehicle were drawn from a stock solution on ice via an 18 gauge needle attached to a 1- or 3-ml syringe and administered subcutaneously slowly via a 23 gauge needle. All injections were made in a shaved area of the thigh such that potential skin reactions to the liposomal preparations could be assessed.
A 1 ml blood sample was collected percutaneously from the left and right cephalic or saphenous veins, in rotating order. In groups 1 and 2 (liposome-encapsulated oxymorphone groups), blood was collected before and 0.5, 1, 2, 4, 8, 12, 16, and 24 hours after drug administration, and daily for 5 days at the same time of day as treatment administration had occurred. In groups 3, 4, and 5 (standard oxymorphone and liposomal vehicle groups), blood was collected before and 0.5, 1, 2, 4, 8, 12, and 24 hours after drug administration. Blood samples were transferred to centrifuge tubes and held on ice for a maximum of 4 hours, then centrifuged at 5° C. for 10 minutes at 5000×g. Serum was stored at −70° C. until analysis.
Oxymorphone concentrations in serum were quantitated using a commercial ELISA (Neogen Inc, Lexington, Ky.).
Plasma oxymorphone concentrations were used in pharmacokinetic model building using a non-linear, mixed effect computer program (NONMEM User's Guides, (1989-98) Beal and Sheiner (Eds.) GloboMax, LLC, Hanover, Md.). The data from all animals were evaluated concurrently. The assumption was made that the subcutaneous injection of the standard and liposomal oxymorphone delivered drug to an extravascular compartment from which unidirectional absorption into the blood occurred. In the case of the liposomal preparation, an additional, unidirectional rate constant of flux from the liposome to the surrounding subcutaneous compartment was assumed.
This was tested in the pharmacokinetic model construction with allowance for a variable (fitted) fraction of the liposomal dose administered directly to the subcutaneous space in the aqueous carrier.
The NONMEM model included an intersubject variability for the parameters of distribution volume, fraction of drug delivered to of the liposome, and drug flux into and out of the plasma. The first-order rate of drug loss from the liposome was assumed to be a physiochemical constant, and was not allowed to vary between animals. Animal weight and sex were tested as continuous and categorical covariates affecting volume and clearance. Pharmacokinetic models that included a tissue distribution compartment were over-parameterized and were discarded. […]

dogs = assay: Sedation score, heart rate, respiratory rate, temperature and skin reaction in dogs; type: in vivo, dog
Protocol: as §1
A sedation score was recorded on each dog prior to drug administration and at the same times as venous blood collection. The sedation score included recording of heart rate by auscultation, respiratory rate by observation of movement of the thoracic wall, and rectal temperature via a digital rectal thermometer. The same person assessed sedation scores throughout the study. Changes in sedation score, heart rate, respiratory rate, and temperature were analyzed using repeated measures ANOVA, with p<0.05 considered significant.

SMILES: CN1CC[C@]23c4c5ccc(O)c4O[C@H]2C(=O)CC[C@@]3(O)[C@H]1C5 [standard oxymorphone, oxymorphone hydrochloride]
- AUC (dose-normalised, median) ([1]; 0.05 mg/kg): 128.0 (ng-hr/L)/mg/kg)
- K23 (from subcutaneous tissue to systemic tissue) ([1]; 0.05 mg/kg): 0.400 h⁻¹
- K30 (from systemic tissue to excretion from body) ([1]; 0.05 mg/kg): 5.40 h⁻¹
- V ([1]; 0.05 mg/kg): 2.03 L
- AUC (dose-normalised, median) ([1]; 0.1 mg/kg): 135.9 (ng-hr/L)/mg/kg)
- K23 (from subcutaneous tissue to systemic tissue) ([1]; 0.1 mg/kg): 0.348 h⁻¹
- K30 (from systemic tissue to excretion from body) ([1]; 0.1 mg/kg): 7.19 h⁻¹
- V ([1]; 0.1 mg/kg): 1.50 L
- time of peak sedation score (dogs; 0.05 and 0.1 mg/kg): 30 min
- respiratory rate and rectal temperature compared to baseline (dogs; either dose): moderate and statistically insignificant decrease
- local skin reactions at the site of injection (dogs; s.c.): no local skin reactions
- heart rate from baseline to 2 hours after drug administration (dogs; within clinically normal range): significant decrease
